pIC50: −log10 of the molar value.
What was measured:
N2A cells [1] = test: oAβ42-induced neurotoxicity in N2A cells, with inhibitor or siRNA (CellTiter-Glo ATP assay); format: cell-based, mouse; set-up: effect on Aβ42 toxicity: dose or concentration left out as unconfirmed
Procedure: Small interfering RNA (siRNA) for the clathrin heavy chain (CLTC, SMARTpool L-004001-00-0005) and control Non-Targeting siRNA were purchased from Dharmacon. Cells were transfected at 20 pmol siRNA in 24-well culture plates using LipofectAmine 2000 according to vendor's recommended transfection protocol. A second transfection was done the next day. These transfected cells were then split and seeded on to 96-well plate in MEM with 10% FBS. 48 hours post-transfection, these cells were treated with oAβ42 for 24 hours.

SH-SY5Y cells = conditions: cited from earlier work
Text: (§1) Dynamin mediates both clathrin-dependent and -independent endocytosis (for review, [76]). We first used two pharmacological inhibitors to block the dynamin-dependent endocytic pathway, genistein (a general tyrosine kinase inhibitor) and PP2 (a Src family tyrosine kinase inhibitor). […] The result was consistent with previous reports that this agent protected from Aβ induced toxicity in cultured hippocampal neurons and SH-SY5Y cells.

[2] = system: cultured hippocampal neurons; conditions: cited from earlier work
Text: as §1

N2A cells [3] = system: N2A cells; set-up: lethality to N2A cells: dose or concentration left out as unconfirmed; conditions: cited from earlier work
N2A cells [4] = conditions: co-cultures of primary neurons and glia, and Neuro-2A cells (N2A); cited from earlier work
Text: Here we focus mainly on endocytic pathways in relation to oAβ42 toxicity in N2A cells.

N2A cells [5] = system: N2A cells
Procedure: Mouse neuroblastoma, N2A cells (ATCC) were maintained in MEM (ATCC) supplemented with 10% FBS, 2 mM L-glutamine, 100 U/ml of penicillin, 100 ug/ml of streptomycin, as previously described. 5000 cells per well were plated on to 96-well plates 24 hours prior to treatment to allow attachment. Cells were then treated […] oAβ42 in DMEM medium without phenol red and with 1% N2 supplement (Invitrogen). At the end of the experiment (24 hours post-treatment), cell viability was assessed by relative cellular ATP levels using CellTiter-Glo assay kit (Promega) according to the manufacture's instruction. Statistical significance was established at p < 0.01 by One-way ANOVA with Tukey test for comparison in different groups.
N2A cells were treated with pharmacological inhibitors that block specific steps during endocytosis. […] Chlorpromazine (2 mM), genistein ([…]), PP2 (1 mM) were added to cell cultures at indicated concentrations 1 hr before oAβ42 treatment in DMEM with 1% N2 supplement. The final concentration of vehicle (DMSO) was 0.05% in all cultures.

neuroblastoma cell line = system: neuroblastoma cell line; set-up: method as in PMID 3796890; conditions: cited from earlier work

O=c1c(-c2ccc(O)cc2)coc2cc(O)cc(O)c12 [genistein]
effect on oAβ42-induced toxicity (N2A cells [1]; pre-treated with 10 mM genistein for 1 hour, 10 μM oAβ42 for 24 hours, p < 0.01): significantly inhibited
protection from Aβ induced toxicity (SH-SY5Y cells): protected
protection from Aβ induced toxicity [2]: protected
pIC50 (N2A cells [3]; read-out: IC50, inhibition of growth of N2A cells, dose-dependent): 4.74

CC(C)(C)n1nc(-c2ccc(Cl)cc2)c2c(N)ncnc21 [PP2]
effect on Aβ42 toxicity (N2A cells [1]; PP2 pre-treatment 1 hr before oAβ42, 24 hours, data not shown): decreased Aβ42 toxicity though to a lesser extent than genistein
lethality to N2A cells (N2A cells [3]): lethal

oAβ42: Oligomer preparation of recombinant Aβ42 (rPeptide), formed in DMSO/Ham's F12 at 4°C for 24 hours
neurotoxicity of the oAβ42 preparation (N2A cells [4]): causes neurotoxicity

CN(C)CCCN1c2ccccc2Sc2ccc(Cl)cc21 [chlorpromazine]
toxicity to N2A cells (N2A cells [5]): toxic
cell viability retained (N2A cells [5]; N2A cells, 2 mM chlorpromazine, ATP-based CellTiter-Glo): 90%
effect on oAβ42 neurotoxicity (N2A cells [1]; 2 mM chlorpromazine added 1 hr before oAβ42, 24 hours, data not shown): failed to block
effect on cells at higher concentration (neuroblastoma cell line; 10^-4-10^-3 M): killed cells
effect on Ca++-mediated toxicity at lower concentration (neuroblastoma cell line; 10^-6-10^-5 M): inhibited Ca^++-mediated toxicity

From PMC2881055, “Endocytic pathways mediating oligomeric Aβ42 neurotoxicity” (Molecular Neurodegeneration, 2010)
